Experimental data from patent US20260216181A1, “COMPOSITIONS AND METHODS FOR TREATING CANCER” (Coiled Therapeutics, Inc., priority 2022, published 2026).

How the values were obtained:
[1] = test system: RKO xenograft; assay: RKO colon cancer xenograft tumor growth; type: in vivo, athymic Balb/c nude mice
Procedure: Six-to-eight-week-old female athymic Balb/c nude mice were housed with a temperature-controlled and 12-hour light/12-hour dark cycle environment. For in vivo colon cancer tumor growth, 5×10^6 RKO cells were prepared in 100 μl of DMEM and injected into right flank of female nude mice. Mouse weight and tumor volume were measured twice a week. Tumor volumes were calculated as length×width^2×0.5. Once the tumor volume had reached about 150-175 mm^3, xenografts were randomized into groups (8 mice per group). Animals were treated with vehicle, Compound 80 or oxaliplatin as mentioned in the table. The formulation for vehicle and Compound 80 was 50% PEG400 and 20% Cremophor RH40 final (50% of 40% Cremophor) in Acetate buffer, PH=4. Oxaliplatin was prepared in glucose solution. The mice were sacrificed after around 3 weeks or if the tumors reached a predefined tumor volume cut-off of 2500 mm^3.

[2] = test system: MDA-MB-231 xenograft; assay: MDA-MB-231 xenograft tumor growth; type: in vivo, athymic Balb/c nude mice; conditions: 20, 25 and 30 mpk BID
Procedure: (§1) Compound 80 was tested in other xenograft models using the following cell lines: triple negative breast cancer cell line, MDA-MB-231, ovarian cancer cell line, SKOV-3 and endometrium cell line, HEC-59. For the SKOV-3 xenograft, 1.5×10^7 SKOV-3 cells in 200 μl of 1:1 DMEM:Matrigel (Thermo Fisher, NJ, USA) and for the MDA-MB-231 xenograft, 1.×10^7 MDA-MB-231 cells in 100 μl of 1:1 DMEM:Matrigel (Thermo Fisher, NJ, USA) for was injected in the right flank of six-to-eight-week-old female athymic Balb/c nude mice. When the tumor volume reached mean of ~200 mm^3 mice for SKOV-3 xenografts and between 150-175 mm^3 for MDA-MB-231 xenografts, mice were randomized in a group of 8, and treatment was initiated vehicle, 20 mpk BID, 25 mpk BID and 30 mpk BID of Compound 80. For the HEC-59 xenografts, 1.×10^7 HEC-59 cells in 100 μl of DMEM (Lonza, NJ, USA) was injected in the right flank of six-to-eight-week-old female athymic Balb/c nude mice. When the tumor volume reached mean of ~150 mm^3 mice were randomized in a group of 8 mice, and treatment was initiated vehicle, 20 mpk BID, 40 mpk QD and 30/40 mpk BID of Compound 80.

[3] = test system: HEC-59 xenograft; assay: HEC-59 xenograft tumor growth; type: in vivo, athymic Balb/c nude mice; conditions: 20 mpk BID, 40 mpk QD, 30/40 mpk BID
Procedure: as §1

[4] = test system: SKOV-3 xenograft; assay: SKOV-3 xenograft tumor growth; type: in vivo, athymic Balb/c nude mice; conditions: 20, 25 and 30 mpk BID
Procedure: as §1

[5] = test system: glioblastoma (GBM) xenografts; conditions: Polson et al., 2018; cited from earlier work
[6] = test system: neuronal differentiation; conditions: rats; Wurdak et al., 2010; cited from earlier work
[7] = Wurdak et al., 2010; cited from earlier work
[8] = test system: ovarian cancer xenografts; conditions: Yao et al., 2014; cited from earlier work
[9] = test system: ovarian cancer cells; conditions: Yao et al., 2014; cited from earlier work

For `C[C@@H]1CN(c2ncc(F)c(Nc3cc(-c4ccc(OC(F)F)cc4)cnn3)n2)C[C@H](C)O1` [Compound 80, 5-(4-(difluoromethoxy)phenyl)-N-(2-((2R,6S)-2,6-dimethylmorpholino)-5-fluoropyrimidin-4-yl)pyridazin-3-amine], the “tumor growth inhibition” value ([1]; RKO xenograft, 20 and 30 mg/kg BID, 50 mg/kg QD, PO) was “strong tumor growth inhibition in a dose-dependent manner”, the “tumor growth inhibition compared to the standard of care (FIG. 1)” value ([1]; xenograft model, vs standard of care) was “superior tumor growth inhibition” and the “tumor growth inhibition or regression” value [2] was “Statistically significant tumor growth inhibition or regression”. For the same compound, the “tumor growth inhibition or regression” value [3] was “Statistically significant tumor growth inhibition or regression” and the “tumor growth inhibition or regression” value [4] was “Statistically significant tumor growth inhibition or regression”.
In the case of `CC(C)CNc1ccnc(NCc2csc(-c3ccccc3)n2)n1` [KHS101], the “tumor growth of glioblastoma (GBM) xenografts” value [5] is listed as “suppressed”, the neuronal differentiation [6] is listed as “promote neuronal differentiation” and the oral systemic stability [7] is listed as “low oral systemic stability”.
In the case of `CCN(Cc1ccncc1)Cc1c(O)ccc2c(-c3cc4ccccc4oc3=O)cc(=O)oc12` [SPL-B], the “tumor growth in ovarian cancer xenografts” value [8] is listed as “suppress tumor growth” and the centrosome microtubule nucleation [9] is listed as “inhibit the centrosome microtubule nucleation”.
